# Structures can show the parent of a compound that is named as a salt. Where two headings read alike, the source gives them in different places.
# Tests used:
# cytotoxic T lymphocytes [1] = type: in vivo, C57BL/6 mice; settings: for swelling of the footpad after injection of LCMV: mice infected in the footpad with LCMV-WE, swelling after seven to eight days
# cytotoxic T lymphocytes [2] = type: in vivo, C57BL/6 mice; settings: splenocytes eight days after i.v. LCMV-WE; EL4 cells sensitized with GP33-41 or NP peptide
# [3] = biological target: T1, 20S proteasomes isolated from murine B8 fibroblasts (Mus musculus, UniProt O55234+P70195+Q60692); experiment: Hydrolysis of fluorogenic substrates by isolated 20S proteasomes; type: biochemical; settings: for "chimotrypsin-like" activity (hydrolysis of Suc-LLVY-MCA), comparison of four HIV-1 protease inhibitors: different batch of purified proteasomes, increasing concentrations
# T1 construct: 20S proteasomes isolated from murine B8 fibroblasts; endogenous in cells; host or cells: murine B8 fibroblasts; 20S proteasome purified from the cells
# Method: FIGS. 4B, 4C and 4D show the hydrolysis of the fluorogenic substrate (100 μM Suc-LLVY-MCA, 100 μM (Z)-GGL-MCA and 400 μM Bz-VGR-MCA) of the 20S proteasomes isolated from murine B8 fibroblasts, as a function of variable concentrations of ritonavir and of LLnL (N-acetyl-L-leucinyl-L-leucinal-L-norleucinal, known inhibitor of the proteasome). The results are reported for one hour of digestion with the 20S proteasome (500 ng) in a final volume of 100 μl. The values were located in a linear detection domain and are the mean values of triplicates with standard errors of less than 3%.
# The hydrolysis of Suc-LLVY-MCA by the 20S murine proteasomes was tested according to the method described in Example 4.2. under identical conditions except for the fact that a different batch of purified proteasomes was used. The hydrolysis of Suc-LLVY-MCA was measured in the presence of increasing concentrations of ritonavir, nelfinavir (Roche), saquinavir (mesylate) and indinavir (active ingredient of Crixivan® marketed by Merck and Sharp and Dohme). The HIV protease inhibitors were dissolved beforehand in ethanol, methanol, DMSO and water respectively, for use in vitro (FIG. 4E).
# [4] = patients with hepatic cytolysis (cytolysis +)
# [5] = patients without hepatic cytolysis (cytolysis −)
# [6] = 100 μM substrate, one hour digestion, 500 ng 20S proteasome
molecule,measurement,setting,value
CC(C)(C)NC(=O)[C@@H]1CN(Cc2cccnc2)CCN1C[C@@H](O)C[C@@H](Cc1ccccc1)C(=O)N[C@H]1c2ccccc2C[C@H]1O [indinavir],swelling of the footpad after injection of LCMV,cytotoxic T lymphocytes [1],not inhibited
same,lysis of the target cells (direct lysis ex vivo after systemic infection),cytotoxic T lymphocytes [2],not inhibited
same,"""chimotrypsin-like"" activity (hydrolysis of Suc-LLVY-MCA), comparison of four HIV-1 protease inhibitors",[3],no inhibition
same,anti-HCV antibody titre,HCV; during the therapy,No increase
same,patients in whom the ALAT concentrations increased,HCV; patients coinfected with HCV and HIV,10%
same,"Ac index (variation of anti-HCV antibody titre, ratio of the optical densities)",HCV; [4],0.98
same,variation of CD4,HCV; [4],29.5 cells /mm^3
same,variation of CD8,HCV; [4],203.5 cells /mm^3
same,variation of HCV-VL (viral HCV load),HCV; [4],2.25 log10 of copies of RNA/ml
same,"Ac index (variation of anti-HCV antibody titre, ratio of the optical densities)",HCV; [5],1.01(+/−0.13)
same,variation of CD4,HCV; [5],21.1(+/−68) cells /mm^3
same,variation of CD8,HCV; [5],9.2(+/−222) cells /mm^3
same,variation of HCV-VL (viral HCV load),HCV; [5],+0.41 log10 of copies of RNA/ml
same,variation of HCV-VL (viral HCV load),"HCV; patients without hepatic cytolysis (cytolysis −), listed as IDN",0.41(+/−0.79) log10 of copies of RNA/ml
N-acetyl-L-leucinyl-L-leucinal-L-norleucinal [LLnL],hydrolysis of the fluorogenic substrate Suc-LLVY-MCA,[3]; [6],inhibits in a similar manner
same,hydrolysis of the substrate (Z)-GGL-MCA,[3]; [6],inhibits in a similar manner
same,"cleavage of the substrate Bz-VGR-MCA (""trypsin"" type activity)","[3]; 400 μM substrate, one hour digestion, 500 ng 20S proteasome",inhibits in a similar manner
CC(C)(C)NC(=O)[C@@H]1C[C@@H]2CCCC[C@@H]2CN1C[C@@H](O)[C@H](Cc1ccccc1)NC(=O)[C@H](CC(N)=O)NC(=O)c1ccc2ccccc2n1 [saquinavir mesylate],"""chimotrypsin-like"" activity (hydrolysis of Suc-LLVY-MCA), comparison of four HIV-1 protease inhibitors",[3],inhibits
CC(C)(C)NC(=O)[C@@H]1C[C@@H]2CCCC[C@@H]2CN1C[C@@H](O)[C@H](Cc1ccccc1)NC(=O)[C@H](CC(N)=O)NC(=O)c1ccc2ccccc2n1 [saquinavir],inhibition of the swelling of the footpads,"cytotoxic T lymphocytes [1]; 7th day after the treatment, oral dose of 4 mg per day",up to 73%
same,"""chymotrypsin-like"" activity of the proteasome",[3]; summary statement,inhibited
same,"""trypsin"" activity of the proteasome",[3]; summary statement,increased
Cc1c(O)cccc1C(=O)N[C@@H](CSc1ccccc1)[C@H](O)CN1C[C@H]2CCCC[C@H]2C[C@H]1C(=O)NC(C)(C)C [nelfinavir],swelling of the footpad after injection of LCMV,cytotoxic T lymphocytes [1],not inhibited
same,lysis of the target cells (direct lysis ex vivo after systemic infection),cytotoxic T lymphocytes [2],not inhibited
same,"""chimotrypsin-like"" activity (hydrolysis of Suc-LLVY-MCA), comparison of four HIV-1 protease inhibitors",[3],no inhibition
